Data taken from ChEMBL document CHEMBL1201862, “PubChem BioAssay data set” (2004).
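Five compound concentrations were applied to cells in 96-well plates for 48 hours; endpoints were derived by simple linear interpolation of the resulting dose-response curve. Abbreviation: GI50, concentration required for 50% inhibition of growth.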 Calls of active or inactive are those of the source. Cut-off read from the data, not from the text of the source: active = GI50 up to about 1.1 µM and inactive = higher.

Experiments:
Assay in all cases: inhibition of tumour cell growth, NCI panel, 48 h
A549 = system: A549
CCRF-CEM = system: CCRF-CEM
COLO 205 = system: COLO 205
HOP-62 = system: HOP-62
HT-29 = system: HT-29
MDA-MB-231 = system: MDA-MB-231
MDA-N = system: MDA-N
MOLT-4 = system: MOLT-4
OVCAR-4 = system: OVCAR-4
OVCAR-5 = system: OVCAR-5
OVCAR-8 = system: OVCAR-8
RXF 393 = system: RXF 393
SF-295 = system: SF-295
SK-MEL-2 = system: SK-MEL-2
SN12C = system: SN12C
SR = system: SR
SW-620 = system: SW-620
TK-10 = system: TK-10
U-251 = system: U-251
SF-539 = system: SF-539

| SMILES | GI50 (A549) | GI50 (CCRF-CEM) | GI50 (COLO 205) | GI50 (HOP-62) | GI50 (HT-29) | GI50 (MDA-MB-231) | GI50 (MDA-N) | GI50 (MOLT-4) | GI50 (OVCAR-4) | GI50 (OVCAR-5) | GI50 (OVCAR-8) | GI50 (RXF 393) | GI50 (SF-295) | GI50 (SK-MEL-2) | GI50 (SN12C) | GI50 (SR) | GI50 (SW-620) | GI50 (TK-10) | GI50 (U-251) | GI50 (SF-539) |
| --- | --- | --- | --- | --- | --- | --- | --- | --- | --- | --- | --- | --- | --- | --- | --- | --- | --- | --- | --- | --- |
| O=S(=O)(O)c1ccc(/N=N\c2c(O)ccc3cc(Br)ccc23)cc1 | > 100 µM (inactive) | > 100 µM (inactive) | > 100 µM (inactive) | > 100 µM (inactive) | > 100 µM (inactive) | > 100 µM (inactive) | > 100 µM (inactive) | > 100 µM (inactive) | > 100 µM (inactive) | > 100 µM (inactive) | > 100 µM (inactive) | > 100 µM (inactive) | > 100 µM (inactive) | > 100 µM (inactive) | > 100 µM (inactive) | > 100 µM (inactive) | > 100 µM (inactive) | > 100 µM (inactive) | > 100 µM (inactive) |  |
| CNc1nc(=O)c(C#N)c(-c2ccc(C)cc2)s1 | > 100 µM (inactive) | > 100 µM (inactive) | > 100 µM (inactive) |  | > 100 µM (inactive) | > 100 µM (inactive) | > 100 µM (inactive) | > 100 µM (inactive) | > 100 µM (inactive) | > 100 µM (inactive) | > 100 µM (inactive) | > 100 µM (inactive) | > 100 µM (inactive) | > 100 µM (inactive) | > 100 µM (inactive) | > 100 µM (inactive) | > 100 µM (inactive) | > 100 µM (inactive) | > 100 µM (inactive) | > 100 µM (inactive) |
| CCOC(=O)c1sc2nc(SC)nc(Nc3ccc(OC)c(OC)c3)c2c1N | 5.28 µM (inactive) | 1.3 µM (inactive) | 83.4 µM (inactive) | 6.04 µM (inactive) | 78 µM (inactive) | 3.78 µM (inactive) | > 100 µM (inactive) |  | 6.65 µM (inactive) | > 100 µM (inactive) | 4.81 µM (inactive) | 3.33 µM (inactive) | 6.9 µM (inactive) | 19.7 µM (inactive) | 60.3 µM (inactive) | 20.9 µM (inactive) | 7 µM (inactive) | 6.73 µM (inactive) | 3.03 µM (inactive) | 1.58 µM (inactive) |
| C=C1C[C@]23CC[C@@H]4C(CO)(CO)CC(=O)C[C@]4(C)[C@@H]2C(O)C[C@H]1C3 (stereo partly drawn) | > 100 µM (inactive) | > 100 µM (inactive) | > 100 µM (inactive) | > 100 µM (inactive) | > 100 µM (inactive) | > 100 µM (inactive) | > 100 µM (inactive) | > 100 µM (inactive) | > 100 µM (inactive) | > 100 µM (inactive) | > 100 µM (inactive) |  | > 100 µM (inactive) | > 100 µM (inactive) | > 100 µM (inactive) | > 100 µM (inactive) | > 100 µM (inactive) | > 100 µM (inactive) | > 100 µM (inactive) | > 100 µM (inactive) |
| CCOC(CN(C)C(=S)Nc1cccc2ccccc12)OCC | > 10 µM (inactive) | > 10 µM (inactive) | > 10 µM (inactive) | > 10 µM (inactive) | > 10 µM (inactive) | > 10 µM (inactive) | > 10 µM (inactive) | > 10 µM (inactive) | > 10 µM (inactive) |  | > 10 µM (inactive) | > 10 µM (inactive) | > 10 µM (inactive) | > 10 µM (inactive) | > 10 µM (inactive) | > 10 µM (inactive) | > 10 µM (inactive) | > 10 µM (inactive) | > 10 µM (inactive) | > 10 µM (inactive) |
| O=C1N=C(SC2OC(CO)C(O)C(O)C2O)S/C1=C\c1ccccc1 (stereo not drawn) | > 100 µM (inactive) | > 100 µM (inactive) |  | > 100 µM (inactive) | > 100 µM (inactive) | > 100 µM (inactive) | > 100 µM (inactive) | > 100 µM (inactive) |  | > 100 µM (inactive) | > 100 µM (inactive) | 25.6 µM (inactive) | > 100 µM (inactive) | > 100 µM (inactive) | > 100 µM (inactive) | > 100 µM (inactive) | > 100 µM (inactive) | > 100 µM (inactive) |  | > 100 µM (inactive) |
| CCOC(=O)C1(C(N)=O)C(=O)c2ccncc2C1=O (stereo not drawn) | > 100 µM (inactive) | > 100 µM (inactive) | > 100 µM (inactive) |  | > 100 µM (inactive) | > 100 µM (inactive) | > 100 µM (inactive) |  | > 100 µM (inactive) | > 100 µM (inactive) | > 100 µM (inactive) | > 100 µM (inactive) | > 100 µM (inactive) | > 100 µM (inactive) | > 100 µM (inactive) | > 100 µM (inactive) | > 100 µM (inactive) |  | > 100 µM (inactive) | > 100 µM (inactive) |
| OCC1OC(c2n[nH]c3c(O)ncnc23)C(O)C1O (stereo not drawn) |  | 7.38 µM (inactive) | 13.9 µM (inactive) | 9.79 µM (inactive) | 11.9 µM (inactive) | 3.66 µM (inactive) | 31.7 µM (inactive) | 5.37 µM (inactive) | 7.89 µM (inactive) | 18.9 µM (inactive) | 4.11 µM (inactive) | 58.6 µM (inactive) | 33.1 µM (inactive) |  | 10.3 µM (inactive) | 27.7 µM (inactive) | 4.17 µM (inactive) |  | 47.9 µM (inactive) | 26 µM (inactive) |
| CC(=O)O[C@H]1C(=O)[C@@]2(C)C(C(OC(=O)c3ccccc3)[C@]3(O)CC(OC(=O)C(O)C(NC(=O)c4ccccc4)c4cccc(Cl)c4)C(C)=C1C3(C)C)[C@]1(OC(C)=O)CO[C@@H]1C[C@@H]2O (stereo partly drawn) | 7.64 µM (inactive) | 2.62 µM (inactive) | 3.1 µM (inactive) | 7.01 µM (inactive) | 2.46 µM (inactive) | > 10 µM (inactive) | 0.984 µM (active) | 4.8 µM (inactive) | > 10 µM (inactive) | 4.15 µM (inactive) | 5.92 µM (inactive) |  | > 10 µM (inactive) | 3.39 µM (inactive) | 4.17 µM (inactive) | 1.47 µM (inactive) | 6.47 µM (inactive) | > 10 µM (inactive) | 4.95 µM (inactive) | 3.24 µM (inactive) |
| COC1=CC(=O)c2c(cc(COP(N)(=O)N(CCBr)CCBr)n2C)C1=O (stereo not drawn) | < 0.01 µM (active) | < 0.01 µM (active) | 0.0242 µM (active) |  | 0.012 µM (active) | 2.1 µM (inactive) | 0.242 µM (active) | < 0.01 µM (active) | 1.66 µM (inactive) | 0.104 µM (active) | < 0.01 µM (active) | 0.0719 µM (active) | < 0.01 µM (active) | 1.7 µM (inactive) | < 0.01 µM (active) | < 0.01 µM (active) | < 0.01 µM (active) | 0.484 µM (active) | < 0.01 µM (active) | < 0.01 µM (active) |
| C=C(Cl)C(Cl)(CBr)CCC(Br)C(C)(C)Br (stereo not drawn) | 4.9 µM (inactive) | 6.21 µM (inactive) | 2.75 µM (inactive) | 1.06 µM (active) | 1.07 µM (active) | 11.9 µM (inactive) | 8.93 µM (inactive) | 6.9 µM (inactive) | 16.3 µM (inactive) | 12.7 µM (inactive) | 4.3 µM (inactive) | 1.8 µM (inactive) | 2 µM (inactive) |  | 7.28 µM (inactive) | 13.4 µM (inactive) | 3 µM (inactive) | 1.49 µM (inactive) | 1.77 µM (inactive) | 1.99 µM (inactive) |
| COc1ccc2c(c1)c(=O)c1c(NCCN(C)C)ccc3c(=O)n(CCN(C)C)c(=O)n2c31 | 0.0367 µM (active) | < 0.01 µM (active) | 0.0293 µM (active) | 0.0711 µM (active) | 0.0197 µM (active) | 0.191 µM (active) | 0.1 µM (active) | < 0.01 µM (active) | 0.101 µM (active) | 0.254 µM (active) | 0.0601 µM (active) |  | 0.0853 µM (active) | 0.182 µM (active) | 0.0298 µM (active) | < 0.01 µM (active) | < 0.0105 µM (active) | 0.141 µM (active) | 0.0783 µM (active) | 0.0376 µM (active) |
| O=C(Oc1cccc(Cl)c1)c1cc2cc(CCl)ccc2oc1=O | 33 µM (inactive) |  | 20.7 µM (inactive) | 42.9 µM (inactive) | 30.5 µM (inactive) | > 100 µM (inactive) | 24.5 µM (inactive) | 34.9 µM (inactive) | 41.5 µM (inactive) | > 100 µM (inactive) | > 100 µM (inactive) | 20.7 µM (inactive) | 71.1 µM (inactive) | 12.6 µM (inactive) | 48.9 µM (inactive) | 63.8 µM (inactive) | > 100 µM (inactive) | 32.1 µM (inactive) |  | 49.1 µM (inactive) |
| Fc1ccc2nc3n(c2c1)C(c1c(Cl)cccc1Cl)SC3 (stereo not drawn) | > 100 µM (inactive) |  | > 100 µM (inactive) | > 100 µM (inactive) | > 100 µM (inactive) | > 100 µM (inactive) | 7.89 µM (inactive) | 6.71 µM (inactive) | > 100 µM (inactive) | > 100 µM (inactive) | > 100 µM (inactive) | > 100 µM (inactive) | > 100 µM (inactive) | > 100 µM (inactive) | > 100 µM (inactive) | 4.3 µM (inactive) | > 100 µM (inactive) | > 100 µM (inactive) | > 100 µM (inactive) | > 100 µM (inactive) |
| CC1(C)C2CCC1(C)C(NC(=O)COCCOCC(N)=O)C2 (stereo not drawn) | > 100 µM (inactive) | > 100 µM (inactive) | 94.8 µM (inactive) | > 100 µM (inactive) | > 100 µM (inactive) | > 100 µM (inactive) | > 100 µM (inactive) | > 100 µM (inactive) | > 100 µM (inactive) | > 100 µM (inactive) | > 100 µM (inactive) | 63.7 µM (inactive) | > 100 µM (inactive) |  | > 100 µM (inactive) | 31.1 µM (inactive) | > 100 µM (inactive) | > 100 µM (inactive) | > 100 µM (inactive) | > 100 µM (inactive) |
